Read-outs that look alike come from different tables or passages of the source.
Key:
[1] = Plasma TG lowering effect in rats after 14 days repeated oral administration, blood taken after 22-hours fasting; type: in vivo, Wistar rat; settings: single agent alone, rat, pitavastatin calcium 10 mg/kg, K-134 or cilostazol 100 mg/kg
From the text: To test effects of combination administration of the said agents, rats were used for the experiment. […] The vertical axis in FIG. 1 indicates concentration of plasma triglyceride (TG) (mg/dL). Administration groups: control; pitavastatin calcium (referred to as pitavastatin) alone; K-134 alone; cilostazol alone; combination of pitavastatin calcium (referred to as pitavastatin) and K-134; and combination of pitavastatin calcium (referred to as pitavastatin) and cilostazol, are listed from left to right.
Plasma TG lowering effect when pitavastatin calcium was administered in combination with K-134 or cilostazol was measured according to the following method 1-4.
A 7-week-old Wistar rat (CLEA Japan, Inc.) was housed in an animal room where light/dark cycle (light period with room lighting from 7.00 to 19.00), temperature of 23±3° C., and humidity of 55±15% were maintained through the experimental period, and solid feed (CLEA Japan, Inc.) and tap water were consumed freely.
Pitavastatin calcium, K-134 and cilostazol were each suspended in aqueous solution (1.0 mass %) of hydroxypropyl methyl cellulose (Shin-Etsu Chemical Co., Ltd.) and prepared in order that the administration dose was 1 mL/kg. The suspension was stored in a colored bottle and refrigerated at 4° C. Preparation was performed every seven days.
3. Test Method 36 rats were divided into 6 administration groups (each group consisted of 6 samples): (1) control; (2) pitavastatin calcium (10 mg/kg) alone; (3) K-134 (100 mg/kg) alone; (4) cilostazol (100 mg/kg) alone; (5) combination of pitavastatin calcium (10 mg/kg) and K-134 (100 mg/kg); and (6) combination of pitavastatin calcium (10 mg/kg) and cilostazol(100 mg/kg).
Pitavastatin was orally administered once daily at 4.00 pm for 14 days repeatedly, and K-134 or cilostazol was orally administered twice daily at 9.00 am and 4.00 pm for 14 days repeatedly. […] Blood sample was taken from each group after 22-hours fasting following the final administration in the afternoon, and plasma TG was measured. […]

[2] = normal rat; cited from earlier work
[3] = clinical report, cited from earlier work
[4] = diabetic rat; cited from earlier work

Structure (SMILES)	hypotriglyceridemic effect in vivo [1]	hypotriglyceridemic effect [2]	TG level ([3]; 4-week administration in a subject)	TG level ([3]; 24-week administration)	hypotriglyceridemic effect [4]
O=C(NCCCOc1ccc2[nH]c(=O)ccc2c1)N(C1CC1)[C@@H]1CCCC[C@H]1O [K-134, (−)-6-[3[3-cyclopropyl-3-[(1R, 2R)-2-hydroxycyclohexyl]ureido]-propoxy]-2-(1H)-quinolinone]	little hypotriglyceridemic effect	–	–	–	–
O=C1CCc2cc(OCCCCc3nnnn3C3CCCCC3)ccc2N1 [cilostazol]	little hypotriglyceridemic effect	unstable	lowered	return to former value after transient elevation	hypotriglyceridemic effect is reported
O=C(O)C[C@H](O)C[C@H](O)/C=C/c1c(C2CC2)nc2ccccc2c1-c1ccc(F)cc1 [pitavastatin, (3R, 5S, 6E)-7-[2-cycloropyl-4-(4-fluorophenyl)-3-quinolyl]-3,5-dihydroxy-6-heptenoic acid]	extremely weak	–	–	–	–
